System: calpain
Test: immunoblot of calcium-induced calpain-mediated spectrin breakdown product
Assay type: biochemical, Rattus norvegicus

IC50: 3 to 6 µM
SMILES: CCOC(=O)[C@H]1O[C@@H]1C(=O)N[C@@H](CC(C)C)C(=O)NCCC(C)C [E64d, 2S,3S-trans-epoxysuccinyl-L-leucylamido-3-methylbutane ethyl ester]
